This is an account of results in patent publication US20250009763A1, “METHODS FOR EXTENDING LIFESPAN AND/OR DELAYING AGING” (priority 2023, published 2025).

One experiment concerns the target T1, SIR2/SIRT1 (Homo sapiens, UniProt Q96EB6).
T1 construct: purchased Enzo Life Sciences, Inc
T1 sequence (Q96EB6 2-747 limits assumed): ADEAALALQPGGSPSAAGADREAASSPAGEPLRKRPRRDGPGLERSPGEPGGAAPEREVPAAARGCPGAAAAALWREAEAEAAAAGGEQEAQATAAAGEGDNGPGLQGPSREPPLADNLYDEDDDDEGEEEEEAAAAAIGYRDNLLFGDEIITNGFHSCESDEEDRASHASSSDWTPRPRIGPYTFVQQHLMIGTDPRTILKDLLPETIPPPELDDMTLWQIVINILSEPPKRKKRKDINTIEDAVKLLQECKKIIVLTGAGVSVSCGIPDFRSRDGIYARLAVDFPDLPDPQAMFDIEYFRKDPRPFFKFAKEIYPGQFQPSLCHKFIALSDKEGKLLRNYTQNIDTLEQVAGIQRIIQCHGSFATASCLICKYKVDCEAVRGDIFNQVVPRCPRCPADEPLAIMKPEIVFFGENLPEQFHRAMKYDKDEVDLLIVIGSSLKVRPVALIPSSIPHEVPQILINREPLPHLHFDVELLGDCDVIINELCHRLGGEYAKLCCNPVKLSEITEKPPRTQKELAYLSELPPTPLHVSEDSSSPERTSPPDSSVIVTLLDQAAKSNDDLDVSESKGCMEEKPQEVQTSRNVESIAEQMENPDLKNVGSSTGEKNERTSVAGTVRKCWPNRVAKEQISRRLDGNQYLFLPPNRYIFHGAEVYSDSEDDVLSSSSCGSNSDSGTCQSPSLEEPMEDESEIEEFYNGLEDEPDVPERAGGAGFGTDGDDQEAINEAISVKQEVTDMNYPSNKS
Kind of experiment: SIR2/SIRT1 activity assay (SIRT1 fluorometric drug discovery kit). Type of experiment: biochemical. The following applies: SIRT1 activity assay kit; FIG. 2K. Here is the method:
The activity of SIR2/SIRT1 was assessed using a SIRT1 fluorometric drug discovery kit (Enzo Life Sciences, Inc.), in accordance with the manufacturer's instructions. Fluorescence was excited at 360 nm and emitted at 460 nm.

The test system of the next experiment is yeast MEP strain ZHY2. Kind of experiment: Mother enrichment program (MEP) assay. The following applies: 0-100 μM PN6, particularly above 10 μM; FIGS. 1A-1D. It counts as cell-based, Saccharomyces cerevisiae. Here is the method:
The MEP strain ZHY2 cells were cultured at 30° C. overnight in liquid yeast 5 extract peptone dextrose (YEPD) medium containing 0, 0.1, 0.5, 2, 10, 25, 50, or 100 μM PN6, and the cultures were diluted to A600=0.25 and recovered to the log phase. Cultures were counted and inoculated in culture tubes at a cell density of 2×10^3 cells/ml. Estradiol was added to the mixtures to achieve a final concentration of 1 μM, and the mixtures were incubated in a roller drum at 50 rpm and 30° C. for 60 hours. Each group was monitored by harvesting samples at the indicated time points. The collected samples were washed and plated in solid YEPD media without estradiol, and the viability is reported as CFUs per 500 μl. The software OpenCFU 3.8 was used to calculate colonies.

The test system of experiment [1] is aged C57BL/6J mice. Put plainly: Visible changes in appearance of aged mice. Conditions: chow containing 50 mg/kg PN6. It counts as in vivo, mouse. Here is the method: All animal procedures were conducted under protocols (Protocol #CGU108-134) that complied with relevant regulations and approved by Research Guidelines for the Care and Use of Laboratory Animals, Chang Guan University. Male C57BL/6J male mice (at 34 weeks of age) obtained from National Laboratory Animal Center (NLAC) were maintained at 23±1° C. and at humidity of 45-70% with a 12 hour dark/light cycle (7:00 am/pm lights on/off). After reaching 50 weeks of age, the mice were randomly divided into two groups: Group I (SD), fed a standard rodent chow (n=27); and Group II (PN6), fed a standard rodent chow containing 50 mg/kg PN6 (n=10). Animals had ad libitum access to food and water throughout the study (the mice were sacrificed at 131 weeks of age), during which their body weight and food intake were measured weekly.

A further experiment concerns HUVECs. Kind of experiment: Population doubling (PD) assay. Type of experiment: cell-based, human. Conditions: 1 or 2 μM; FIG. 3A. On the procedure:
For the population doubling (PD) assay, HUVECs (1×10^5 cells/3.5 cm dish) were propagated in the presence of DMSO (i.e., control) or PN6 (1 or 2 μM) until senescence (Day 41), and the cell numbers in each passage were recorded to generate a growth curve that represented the cumulative population doubling. The population doubling levels (PDLs) of HUVECs were calculated in every culture to indicate the proliferation capacity of HUVECs under the respective conditions. The population doublings (PDs) were estimated using the equation: PDL=3.32 (log (total viable cells at harvest/total viable cells at seeding). Also, HUVECs at passages PDL4 and PDL11 cultured in 0 μM (i.e., DMSO alone), 1 μM, or 2 μM PN6 were harvested for further analyses (e.g., western blot and SA-β-gal staining).

For experiment [2], the system named is aged C57BL/6J mice. Kind of experiment: Rotarod test. The following applies: rotarod at constant or accelerating speed; mid-term and long-term; versus SD-fed mice; FIGS. 4H-4I. It counts as in vivo, mouse. Here is the method: The male C57BL/6J mice were subjected to a rotarod test at 88 weeks (mid-term) and 112 weeks (long-term) of age. The mice underwent a 3-day habituation period, during which they were placed on the rotarod at a constant speed (4 rpm), and were required to remain on the rotarod for 1 minute at a time every day. To conduct the actual test, each mouse was subjected to five trials, with a 10-15 minute rest period between each trial. For each trial, the tests for the constant and accelerated speeds were conducted sequentially according to the following schedule: During a 5-minute trial period, a run consisted of an initial constant rotating speed of 4 rpm and a subsequent accelerated rotating speed accelerated from 4 to 40 rpm was performed 5 times. […] The latency to falling was recorded, and the average latency to falling was calculated for each trial. Data are presented as the average of the 5 trials. Mid-term: SD, n=30; PN6, n=8; long-term: SD, n=22; PN6, n=8.
(The rotarod test checks motor coordination on a turning rod.)

In experiment [3] the test system is aged C57BL/6J mice. Kind of experiment: Rearing behavior. The following applies: long-term (111 weeks of age), old-aged mice; FIG. 4D. It counts as in vivo, mouse. On the procedure:
The rearing behavior of the male C57BL/6J mice fed a standard rodent chow with or without 50 mg/kg PN6 for 22 weeks (at 72 weeks of age; mid-term) or for 61 weeks (at 111 weeks of age; long-term) was analyzed using the OxyletPro System, in which the mice were housed individually in metabolic cages that were equipped with infrared light beam frames surrounding them. Mid-term: SD, n=16; PN6, n=8; long-term: SD, n=12; PN6, n=8.

The structures appear in SMILES notation.

For the compound `CCC(CC[C@@H](C)C1CCC2C3CC(=O)[C@H]4C[C@@H](O)CC[C@]4(C)C3CC[C@@]21C)C(C)C` (stereo in doubt) [PN6, (24S)-3β-hydroxy-5α-stigmastan-6-one], the SIRT1 activity result at SIR2/SIRT1 is listed as “directly increase the SIRT1 activity”. The “viability of yeast ZHY2” value in the experiment with yeast MEP strain ZHY2 is listed as “increased proportionally with the concentration of PN6”. In the experiment with aged C57BL/6J mice [1], this compound had a Hair graying of 25%, a Kyphosis of 13% and a Muscle weakness of 13%. Further, the “population doubling level (PDL) of HUVECs” value in the experiment on HUVECs was “increase the PDL”. The “motor skills (latency to falling)” value with aged C57BL/6J mice [2] is given as “steadily improved”. Further, in the experiment on aged C57BL/6J mice [3], the “rearing behavior (exploratory activity)” value is “increase the exploratory activity”.
